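Step 1: Grow cells in 96-well plates. Step 2: Expose to compound for 48 hours at 5 concentrations. Step 3: Interpolate endpoints linearly; if unreached, use highest concentration. GI50 is the concentration that inhibits growth by half. TGI is the concentration that stops growth completely.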

We go through eleven compounds from PubChem BioAssay (NCI).

Among the test systems are A498 renal; HOP-92 NSCLC; NCI-H522 lung; SF-539 CNS; SK-MEL-2 melanoma; SK-MEL-5 melanoma; SW-620 colon; TK-10 renal; UACC-257 melanoma; CCRF-CEM leukemia.
Holding throughout (experiment): NCI-60 cell line screen, 48 h

Consider `CN(C)c1ccc(N)cc1`, for which the GI50 is 7.02 µM in the assay with A498 renal; 2.3 µM with HOP-92 NSCLC; 1.94 µM in the assay with NCI-H522 lung; 10.3 µM in the assay on SF-539 CNS; 2.55 µM with SK-MEL-2 melanoma; 3.91 µM with SK-MEL-5 melanoma. Further, the figures for the GI50 in the assay with SW-620 colon, with TK-10 renal and in the assay with UACC-257 melanoma were 4.15 µM, 3.05 µM and 2.69 µM, respectively. The TGI in the assay on A498 renal was determined as 50.7 µM; in the assay on HOP-92 NSCLC, 7.91 µM; with NCI-H522 lung, 7.84 µM; in the assay with SF-539 CNS, 25.5 µM; with SK-MEL-2 melanoma it was 7.84 µM; in the assay on SK-MEL-5 melanoma, 13.7 µM. The figures for the TGI in the assay with SW-620 colon, in the assay with TK-10 renal and in the assay on UACC-257 melanoma were 17.2 µM, 18.5 µM and 7.28 µM, respectively.

Turning to `NC(=S)N/N=C/c1ccc(OC(=O)COc2ccc(Cl)cc2)cn1`, the GI50 in the assay with A498 renal is 11.9 µM; in the assay on CCRF-CEM leukemia it was 2.73 µM; in the assay with NCI-H522 lung, 0.718 µM; with SF-539 CNS it was 3.64 µM; with SK-MEL-2 melanoma, 9.69 µM; with SK-MEL-5 melanoma, 3.24 µM. The GI50 in the assay with SW-620 colon was 3.29 µM; in the assay with TK-10 renal it was 30 µM; with UACC-257 melanoma, 17.9 µM. The TGI is 71 µM in the assay with A498 renal; above 100 µM with CCRF-CEM leukemia; 40 µM with NCI-H522 lung; 22.8 µM in the assay on SF-539 CNS; above 100 µM in the assay on SK-MEL-2 melanoma; 23.6 µM in the assay with SK-MEL-5 melanoma. The TGI in the assay on SW-620 colon was above 100 µM; in the assay on TK-10 renal, above 100 µM; with UACC-257 melanoma, 72.1 µM.

With `Cc1ccc2nc3c(C(=O)NCCN(C)C)cccc3nc2c1`, the TGI in the assay with A498 renal is 8.7 µM; in the assay with HOP-92 NSCLC, above 22.4 µM; in the assay with NCI-H522 lung it was above 100 µM; with SF-539 CNS it was 15.7 µM; in the assay with SK-MEL-2 melanoma, 12.9 µM; with SK-MEL-5 melanoma, above 39.8 µM. Also, the TGI was above 35.7 µM in the assay on SW-620 colon, above 66 µM with TK-10 renal and 14.1 µM with UACC-257 melanoma.

For the compound `COC(=O)c1cc(Br)c(Br)n1C`, the TGI in the assay with A498 renal, in the assay with CCRF-CEM leukemia, in the assay with HOP-92 NSCLC, in the assay with NCI-H522 lung, in the assay with SF-539 CNS and in the assay with SK-MEL-5 melanoma was above 100 µM in each case. In addition, the TGI with SW-620 colon, with TK-10 renal and in the assay on UACC-257 melanoma was above 100 µM each time.

As to `C=CCCCCCCCCC(=O)NS(=O)(=O)c1ccccc1`, the TGI with A498 renal, with HOP-92 NSCLC, in the assay on NCI-H522 lung, in the assay on SF-539 CNS, in the assay with SK-MEL-2 melanoma and in the assay with SW-620 colon was above 100 µM throughout. The TGI in the assay on TK-10 renal and in the assay on UACC-257 melanoma was above 100 µM throughout.

As to `Nc1ncc(-c2cnn(CCO)c2)c2scc(-c3ccc(NC(=O)Nc4cccc(F)c4)cc3)c12`, the GI50 in the assay on A498 renal was 0.122 µM; with CCRF-CEM leukemia, below 0.01 µM; with HOP-92 NSCLC it was 0.227 µM; in the assay with NCI-H522 lung, 0.449 µM; in the assay with SK-MEL-2 melanoma it was 0.364 µM; with SK-MEL-5 melanoma, 1.03 µM. In addition, the GI50 with SW-620 colon was 0.179 µM; in the assay on TK-10 renal, 0.394 µM; in the assay with UACC-257 melanoma, 0.287 µM. Moreover, the TGI in the assay on A498 renal was determined as 0.663 µM; with CCRF-CEM leukemia, 5.01 µM; in the assay on HOP-92 NSCLC, 0.733 µM; in the assay with NCI-H522 lung, 2.29 µM; with SK-MEL-2 melanoma, 1.66 µM; in the assay with SK-MEL-5 melanoma, 2.35 µM. Moreover, the TGI stood at 3.74 µM with SW-620 colon, 3.43 µM in the assay with TK-10 renal and 1.89 µM in the assay on UACC-257 melanoma.

Turning to `O=C(O)CC1OCC=C2CN3CCC45c6ccccc6NC4C1C2CC35` (stereo not drawn), the TGI with A498 renal, in the assay with CCRF-CEM leukemia, in the assay with HOP-92 NSCLC, in the assay on NCI-H522 lung, in the assay with SF-539 CNS and in the assay on SK-MEL-5 melanoma was above 100 µM throughout. Moreover, the TGI in the assay with SW-620 colon, in the assay on TK-10 renal and in the assay on UACC-257 melanoma was above 100 µM throughout.

Turning to `CCOC(=O)Sc1ncnc2nc[nH]c12`, the GI50 with A498 renal is 14.4 µM; in the assay on CCRF-CEM leukemia, 0.629 µM; with NCI-H522 lung, 3.33 µM; with SF-539 CNS, 2.35 µM; with SK-MEL-2 melanoma, 6.15 µM; in the assay on SK-MEL-5 melanoma, 5.96 µM. Besides, the values for the GI50 with SW-620 colon, in the assay with TK-10 renal and in the assay with UACC-257 melanoma were 3.89 µM, 0.547 µM and 7.2 µM, respectively. The TGI in the assay with A498 renal is above 100 µM; with CCRF-CEM leukemia it was 13.4 µM; in the assay with NCI-H522 lung it was above 100 µM; with SF-539 CNS, above 100 µM; with SK-MEL-2 melanoma, above 100 µM; in the assay with SK-MEL-5 melanoma, above 100 µM. Moreover, the TGI in the assay with SW-620 colon, in the assay with TK-10 renal and in the assay on UACC-257 melanoma was above 100 µM each time.

For `CCS(=O)(=O)c1ccc(OC)c(Nc2ncc(-c3cccc(C(C)=O)c3)o2)c1`, the GI50 in the assay on A498 renal was 0.6 µM; in the assay with CCRF-CEM leukemia, above 25 µM; with NCI-H522 lung, 11 µM; in the assay with SF-539 CNS, 8.69 µM; with SK-MEL-2 melanoma, above 25 µM; in the assay on SK-MEL-5 melanoma, above 25 µM. The GI50 in the assay with SW-620 colon, in the assay on TK-10 renal and in the assay on UACC-257 melanoma was above 25 µM in each case. Further, the TGI was 5.88 µM in the assay with A498 renal; above 25 µM in the assay on CCRF-CEM leukemia; above 25 µM with NCI-H522 lung; above 25 µM in the assay on SF-539 CNS; above 25 µM with SK-MEL-2 melanoma; above 25 µM with SK-MEL-5 melanoma. For the same compound, the TGI in the assay on SW-620 colon, in the assay with TK-10 renal and with UACC-257 melanoma was above 25 µM in each case.

On to `CCCCCCCC(CC(=O)NC(CO)C(=O)NC(CO)CC(C)C)OC(=O)CC(CCCCCCC)OC(=O)CC(CCCCCCC)OC1OC(C)C(O)C(OC2OC(C)C(O)C(OC(C)=O)C2O)C1O` (stereo not drawn), for which the TGI stood at 26.1 µM with A498 renal; 21.4 µM in the assay on CCRF-CEM leukemia; 22.8 µM in the assay with HOP-92 NSCLC; 28.4 µM in the assay with NCI-H522 lung; 24.5 µM with SF-539 CNS; 25.1 µM in the assay on SK-MEL-5 melanoma. For the same compound, the TGI in the assay on SW-620 colon was determined as 28.8 µM; with TK-10 renal it was 29.2 µM; in the assay on UACC-257 melanoma it was 18.5 µM.

With `COc1cc2oc(-c3ccc(O)cc3)cc(=O)c2c(OC)c1OC`, the TGI with A498 renal, with CCRF-CEM leukemia, with HOP-92 NSCLC, in the assay with NCI-H522 lung, with SF-539 CNS and in the assay on SK-MEL-5 melanoma was above 100 µM throughout. Moreover, the TGI in the assay on SW-620 colon, in the assay on TK-10 renal and in the assay with UACC-257 melanoma was above 100 µM in each case.
